Laboratory results reported in US11078215B2, “Crystalline forms of lorlatinib maleate” (Pfizer Inc., priority 2016, dated 2021).
Where a name gives a salt, the structure may show the parent alone.

What was measured:
[1] = Slurry experiments, thermodynamic stability of lorlatinib maleate hydrate (Form 2) in a variety of solvent systems; assay type: physicochemical
Method: The thermodynamic stability of Form 2 was further assessed in variety of solvent systems at temperatures of 5° C. to 40° C. as shown in Table 11. Suspensions of Form 2 were prepared under the indicated conditions and equilibrated for 2 weeks. Resultant solids were analyzed by PXRD. […] Formation of new materials in ethanol and methanol is believed to be a solvated form.

[2] = Physical stability of Form 1 drug product vs. acetic acid solvate drug product; settings: drug product
Description: The physical stabilities of Form 1 and lorlatinib acetic acid solvate as drug product were investigated under a variety of conditions.

SMILES: C[C@H]1Oc2cc(cnc2N)-c2c(nn(C)c2C#N)CN(C)C(=O)c2ccc(F)cc21 [lorlatinib maleate hydrate (Form 2), (10R)-7-amino-12-fluoro-2,10,16-trimethyl-15-oxo-10,15,16,17-tetrahydro-2H-8,4-(metheno)pyrazolo[4,3-h][2,5,11]benzoxadiazacyclotetradecine-3-carbonitrile (PF-06463922) Maleate Hydrate (Form 2)]
- Slurry output, solid form by PXRD ([1]; 1,4-dioxane, Aw 0, 5° C., 2 weeks): Form 2
- Slurry output, solid form by PXRD ([1]; 1,4-dioxane, Aw 0, 40° C., 2 weeks): Form 2
- Slurry output, solid form by PXRD ([1]; 1,4-dioxane, Aw 0, RT, 2 weeks): Form 2
- Slurry output, solid form by PXRD ([1]; EtOAc, Aw 0, 5° C., 2 weeks): Form 2
- Slurry output, solid form by PXRD ([1]; EtOAc, Aw 0, 40° C., 2 weeks): Form 2
- Slurry output, solid form by PXRD ([1]; EtOAc, Aw 0, RT, 2 weeks): Form 2
- Slurry output, solid form by PXRD ([1]; EtOAc/water, Aw 0.1, 5° C., 2 weeks): Form 2
- Slurry output, solid form by PXRD ([1]; EtOAc/water, Aw 0.1, 40° C., 2 weeks): Form 2
- Slurry output, solid form by PXRD ([1]; EtOAc/water, Aw 0.1, RT, 2 weeks): Form 2
- Slurry output, solid form by PXRD ([1]; EtOAc/water, Aw 0.3, 5° C., 2 weeks): Form 2
- Slurry output, solid form by PXRD ([1]; EtOAc/water, Aw 0.3, 40° C., 2 weeks): Form 2
- Slurry output, solid form by PXRD ([1]; EtOAc/water, Aw 0.3, RT, 2 weeks): Form 2
- Slurry output, solid form by PXRD ([1]; EtOAc/water, Aw 0.75, 5° C., 2 weeks): Form 2
- Slurry output, solid form by PXRD ([1]; EtOAc/water, Aw 0.75, 40° C., 2 weeks): Form 2
- Slurry output, solid form by PXRD ([1]; EtOAc/water, Aw 0.75, RT, 2 weeks): Form 2
- Slurry output, solid form by PXRD ([1]; Ethanol, Aw 0, 5° C., 2 weeks): Form 2
- Slurry output, solid form by PXRD ([1]; Ethanol, Aw 0, 40° C., 2 weeks): solvate
- Slurry output, solid form by PXRD ([1]; MeOAc, Aw 0, 5° C., 2 weeks): Form 2
- Slurry output, solid form by PXRD ([1]; MeOAc, Aw 0, 40° C., 2 weeks): Form 2
- Slurry output, solid form by PXRD ([1]; MeOAc, Aw 0, RT, 2 weeks): Form 2
- Slurry output, solid form by PXRD ([1]; TFE, Aw 0, 5° C., 2 weeks): Form 2
- Slurry output, solid form by PXRD ([1]; TFE, Aw 0, 40° C., 2 weeks): amorphous
- Slurry output, solid form by PXRD ([1]; TFE, Aw 0, RT, 2 weeks): Form 2
- Slurry output, solid form by PXRD ([1]; acetone, Aw 0, 5° C., 2 weeks): Form 2
- Slurry output, solid form by PXRD ([1]; acetone, Aw 0, 40° C., 2 weeks): Form 2
- Slurry output, solid form by PXRD ([1]; acetone, Aw 0, RT, 2 weeks): Form 2
- Slurry output, solid form by PXRD ([1]; acetone/water, Aw 0.1, 5° C., 2 weeks): Form 2
- Slurry output, solid form by PXRD ([1]; acetone/water, Aw 0.1, 40° C., 2 weeks): Form 2
- Slurry output, solid form by PXRD ([1]; acetone/water, Aw 0.1, RT, 2 weeks): Form 2
- Slurry output, solid form by PXRD ([1]; acetone/water, Aw 0.3, 5° C., 2 weeks): Form 2
- Slurry output, solid form by PXRD ([1]; acetone/water, Aw 0.3, 40° C., 2 weeks): Form 2
- Slurry output, solid form by PXRD ([1]; acetone/water, Aw 0.3, RT, 2 weeks): Form 2
- Slurry output, solid form by PXRD ([1]; acetone/water, Aw 0.75, 5° C., 2 weeks): Form 2
- Slurry output, solid form by PXRD ([1]; acetone/water, Aw 0.75, 40° C., 2 weeks): Form 2
- Slurry output, solid form by PXRD ([1]; acetone/water, Aw 0.75, RT, 2 weeks): Form 2
- Slurry output, solid form by PXRD ([1]; acetone/water, Aw 0.9, 5° C., 2 weeks): Form 2
- Slurry output, solid form by PXRD ([1]; acetone/water, Aw 0.9, RT, 2 weeks): Form 2
- Slurry output, solid form by PXRD ([1]; acetonitrile, Aw 0, 5° C., 2 weeks): Form 2
- Slurry output, solid form by PXRD ([1]; acetonitrile, Aw 0, 40° C., 2 weeks): Form 2
- Slurry output, solid form by PXRD ([1]; acetonitrile, Aw 0, RT, 2 weeks): Form 2
- Slurry output, solid form by PXRD ([1]; methanol, Aw 0, 5° C., 2 weeks): Form 2
- Slurry output, solid form by PXRD ([1]; methanol/water, Aw 0.1, 5° C., 2 weeks): Form 2
- Slurry output, solid form by PXRD ([1]; methanol/water, Aw 0.1, 40° C., 2 weeks): solvate
- Slurry output, solid form by PXRD ([1]; methanol/water, Aw 0.1, RT, 2 weeks): Form 2
- Slurry output, solid form by PXRD ([1]; methanol/water, Aw 0.3, 5° C., 2 weeks): Form 2
- Slurry output, solid form by PXRD ([1]; methanol/water, Aw 0.3, 40° C., 2 weeks): solvate
- Slurry output, solid form by PXRD ([1]; methanol/water, Aw 0.3, RT, 2 weeks): Form 2
- Slurry output, solid form by PXRD ([1]; methanol/water, Aw 0.75, 5° C., 2 weeks): Form 2
- Slurry output, solid form by PXRD ([1]; methanol/water, Aw 0.75, 40° C., 2 weeks): Form 2
- Slurry output, solid form by PXRD ([1]; methanol/water, Aw 0.75, RT, 2 weeks): Form 2
- Conversion to Form 1 in slurry (summary) ([1]; variety of solvent systems, 5° C. to 40° C., 2 weeks): No conversion to Form 1 was detected
- Thermodynamic stability (summary) ([1]; wide range of water activities and solvent conditions): thermodynamically stable

SMILES: CC(=O)O.C[C@H]1Oc2cc(cnc2N)-c2c(nn(C)c2C#N)CN(C)C(=O)c2ccc(F)cc21 [lorlatinib acetic acid solvate, reference compound]
- impurity (solid phase impurity), physical stability of drug product ([2]; 50° C./75% RH, 2 weeks): ~30% impurity
- impurity (solid phase impurity), physical stability of drug product ([2]; 70° C./10% RH, 3 weeks): ~80% impurity
- impurity (solid phase impurity), physical stability of drug product ([2]; 70° C./40% RH, 2 weeks): ~80% impurity
- impurity (solid phase impurity), physical stability of drug product ([2]; 70° C./75% RH, 1 week): ~80% impurity
